For data set [1], the system named is blood platelet aggregation. As to the kind of experiment: Anti-aggregation action in rats (graded / in words). The class given is in vivo. Also on record: key to Anti-aggregation action: -: zero activity; +: significant activity; ++: intense activity; +++: very intense activity.
From the text: (b) by ADP: the inhibition of aggregation (that is to say the % transmission).
Data set [2] in a line: Hypo-lipidaemic and hypo-cholesterolaemic action of other products (Table V). It counts as in vivo, rats. As to conditions: Rattus norvegicus, 96 h; for change in vivo at 100 mg/kg: oral 100 mg/kg for 4 days; for change in vivo at 10 mg/kg: oral 10 mg/kg for 4 days. An excerpt: The results of the anti-aggregation test and of the hypo-[…] action and hypo-cholesterolaemic action tests of other products of the invention have been […] Table V which follows, the code used being the following (for each dose shown): […]

A short description of data set [3]: Solubility of the isolated product.
Data set [4] can be described thus: Reduction of lipids and cholesterol in rats treated orally. The class given is in vivo. The conditions noted are these: for inhibition in vivo at 20 mg/kg: po, 120 h, 5 days.
A short description of data set [5]: Clinical tests in man. It counts as in vivo. As to conditions: man; gelatine-coated pills of 300 mg, 3 per day. As to the method:
The clinical tests have made it possible to confirm the pharmacological tests. Thus, in man, CRL 40,293 (Example 23) in the form of gelatine-coated pills containing 400 mg of active ingredient administered at the rate of 2 such pills twice daily has given good results in the treatment of circulatory complaints and especially of lipid disturbances.
CRL 40,386 (Example 8) has been used in man for the treatment of hyperlipidaemia in the form of gelatine-coated pills each containing 300 mg of active ingredient at the rate of 2 to 6 such pills per day.

Data set [6] concerns platelets (aggregation induced by collagen). As to the kind of experiment: Anti-aggregation action, platelet aggregation induced by collagen. It counts as in vivo, male Wistar rats. As to conditions: 4 days. As to the method:
(a) by collagen: the inhibition of aggregation (which corresponds to the % transmission), the latency period and the speed; and
In Table IV which follows have been shown the results relating to the anti-aggregation action of some products on the blood of male Wistar rats, the aggregating agents used being collagen/acetic acid diluted 1/10, and ADP at 1 μM.

A short description of data set [7]: Hypo-lipidaemic and hypo-cholesterolaemic action in rats on hyper-lipid diet. It counts as in vivo, Wistar rats. The conditions noted are these: hyper-lipid diet; for inhibition at 10 mg/kg / inhibition at 25 mg/kg / inhibition at 100 mg/kg: Rattus norvegicus, normal diet = 100%, hyper-lipid diet = 0%. An excerpt: A. a batch of rats receiving a normal diet (percentage inhibition=100%);
B. a batch of rats receiving a hyper-lipid diet (percentage inhibition=0%);
C. a batch of rats receiving the hyper-lipid diet B with a daily dose, of 0.1 g/kg, of a reference product having a lipidaemia-normalising action, namely Lipavlon [ethyl 2-(p-chlorophenoxy)-2-methyl-propionate];
D. a batch of rats receiving the hyper-lipid diet B with a daily dose, of 0.1 g/kg, of another product having a lipidaemia-normalising action, namely LL 1558 [1,10-bis-(2-hydroxyethyl-thio)-decane]; and
E. a batch of rats receiving the hyper-lipid diet B with a daily dose of 10 mg/kg and 25 mg/kg, where necessary, higher doses.
In Table III which follows have been shown the results relating to CRL 40,201 (the product of Example 17) and CRL 40,202 (the product of Example 18) in respect of the hypo-lipidaemic action and hypo-cholesterolaemic action.

[8] abbreviates: read-out: Total lipids (change).
[9] abbreviates: oral 200 mg/kg, collagen/acetic acid diluted 1/10.
[10] abbreviates: oral daily dose 0.010 g/kg, read-out: Total cholesterol % inhibition.
Where [11] appears, read: oral daily dose 0.010 g/kg, read-out: Total lipids % inhibition.
Setting [12] is: oral daily dose 0.025 g/kg, read-out: Total cholesterol % inhibition.
Where [13] appears, read: oral daily dose 0.025 g/kg, read-out: Total lipids % inhibition.
Where [14] appears, read: oral daily dose 0.1 g/kg, read-out: Total cholesterol % inhibition.
The mark [15] stands for this setting: oral daily dose 0.1 g/kg, read-out: Total lipids % inhibition.

Molecules are shown by their SMILES. Where a name gives a salt, the structure may show the parent alone. Read-outs that look alike come from different tables or passages of the source.

The source of these data is patent publication US4156011A, “Sulphur- and oxygen-containing diaryl compounds” (priority 1974, dated 1979).

Take `CC(COC(=O)C(C)(C)Oc1ccc(Sc2ccc(Cl)cc2)cc1)SCCCCCCCCCCSC(C)COC(=O)C(C)(C)Oc1ccc(Sc2ccc(Cl)cc2)cc1` (racemic) [CRL 40,387, (±)-2,15-Dimethyl-3,14-dithia-1,16-hexadecyl di-{2-[p-(p-chlorophenylthio)-phenoxy]-2-methylpropionate}]: in data set [1] (10, 20 and 50 mg/kg orally), the “effect on the blood platelet aggregation” value is recorded as “no effect”.

As for `CCN(CC)CCOc1ccc(Oc2ccc(Cl)cc2)cc1.Cl` [CRL 40,330, N,N-Diethyl-2-[4-(4-chlorophenoxy)-phenoxy]-ethylamine hydrochloride], the Anti-aggregation action entry in data set [1] (oral 100 mg/kg for 4 days) is “+”. Moreover, the change in vivo at 100 mg/kg in data set [2] (read-out: Cholesterol (change)) and in data set [2] (setting [8]) was -13% each time.

As to `CC(CO)Sc1ccc(Oc2ccc(Cl)cc2)cc1` (racemic) [CRL 40,282, (±)-2-[4-(4-Chlorophenoxy)-phenylthio]-1-propanol], in data set [1] (oral 100 mg/kg for 4 days), the Anti-aggregation action result is listed as “+”. For the same molecule, the “solubility in water (in words)” value in data set [3] is reported as “water-insoluble”.

For `CCN(CC)CCNC(=O)COc1ccc(Oc2ccc(Cl)cc2)cc1.Cl` [CRL 40,334, N-(2-Diethylaminoethyl)-4-(4-chlorophenoxy)-phenoxy-acetamide hydrochloride], the Anti-aggregation action entry in data set [1] (oral 100 mg/kg for 4 days) is listed as “+++”. For the same molecule, the change in vivo at 100 mg/kg in data set [2] (read-out: Cholesterol (change)) and in data set [2] (setting [8]) was -17% in each case. In data set [3], the “solubility in water (in words)” value is recorded as “soluble in water”.

Take `CC(CO)Oc1ccc(Oc2ccc(Cl)cc2)cc1` (racemic) [CRL 40,300, (±)-2-[4-(4-Chlorophenoxy)-phenoxy]-1-propanol]: the Anti-aggregation action entry in data set [1] (oral 100 mg/kg for 4 days) is “+”. Also, the “solubility in water (in words)” value in data set [3] is on record as “insoluble in water”.

For `CC(COC(=O)C(C)(C)Sc1ccc(Oc2ccc(Cl)cc2)cc1)SCCCCCCCCCCSC(C)COC(=O)C(C)(C)Sc1ccc(Oc2ccc(Cl)cc2)cc1` (racemic) [CRL 40,414, (±)-2,15-Dimethyl-3,14-dithia-1,16-hexadecyl di-{2-[p-(p-chlorophenoxy)-phenylthio]-2-methylpropionate}], the “reduction in the (total) lipids” value in data set [4] (oral 100 mg/kg, 4 days) turned out to be 12%. Besides, the treatment of hyperlipidaemia result in data set [5] was “used with success”.

As for `CC(C)(Oc1ccc(Sc2ccc(Cl)cc2)cc1)C(=O)NCCO` [CRL 40,251, N-Hydroxyethyl-4-(4-chlorophenylthio)-phenoxy-isobutyramide], in data set [6] (setting [9]), the “change in aggregation, collagen, latency period” value is “+23%” and the “change in aggregation, collagen, speed” value is -21%. For the same molecule, in data set [3], the “solubility in water (in words)” value is “insoluble in water”.

Turning to `CC(C)(CO)Oc1ccc(Oc2ccc(Cl)cc2)cc1` [CRL 40,310, 4-(4-Chlorophenoxy)-phenoxy-isobutanol], the change in vivo at 100 mg/kg in data set [2] (read-out: Cholesterol (change)) was -32%; in data set [2] (setting [8]), -20%. In addition, in data set [3], the “solubility in water (in words)” value is on record as “insoluble in water”.

For the molecule `CC(C)(Oc1ccc(Sc2ccc(Cl)cc2)cc1)C(=O)O` [CRL 40,201, 4-(4-Chlorophenylthio)-phenoxyisobutyric acid], the inhibition at 10 mg/kg in data set [7] (setting [10]) came to 35%; in data set [7] (setting [11]) it was 30%. Also, the inhibition at 25 mg/kg in data set [7] (setting [12]) stood at 48%; in data set [7] (setting [13]), 45%. Also, the values for the Total cholesterol in data set [7] (oral daily dose 0.010 g/kg) and in data set [7] (oral daily dose 0.025 g/kg) were 3.28 g/L and 2.8 g/L, respectively. The Total lipids in data set [7] (oral daily dose 0.010 g/kg) was 9 g/L; in data set [7] (oral daily dose 0.025 g/kg), 7.7 g/L.

Turning to `CC(COC(=O)CSc1ccc(Oc2ccc(Cl)cc2)cc1)SCCCCCCCCCCSC(C)COC(=O)CSc1ccc(Oc2ccc(Cl)cc2)cc1` (racemic) [CRL 40,405, (±)-2,15-Dimethyl-3,14-dithia-1,16-hexadecyl di-[p-(p-chlorophenoxy)-phenylthio-acetate]], in data set [4] (Rattus norvegicus, 96 h, oral 100 mg/kg, 4 days), the inhibition in vivo at 100 mg/kg was determined as 44%. Also, the inhibition in vivo at 20 mg/kg in data set [4] (Rattus norvegicus, read-out: reduction in the cholesterol) amounted to 30%; in data set [4] (Rattus norvegicus, read-out: reduction in the lipids), 12%. Besides, the “reduction in the (total) lipids” value in data set [4] (oral 100 mg/kg, 4 days) came to 35%. Also, the “% transmission (collagen test)” value in data set [6] (100 mg/kg) is reported as -10%. In addition, in data set [6] (100 mg/kg, unit not given), the “latency time (collagen test)” value is reported as “+10”. Moreover, in data set [6] (100 mg/kg, unit not given), the “speed (collagen test)” value was -17.

In the case of `CCOC(=O)C(C)(C)Oc1ccc(Cl)cc1` [Lipavlon, ethyl 2-(p-chlorophenoxy)-2-methyl-propionate, reference compound], the inhibition at 100 mg/kg in data set [7] (setting [14]) was 11%. For the same molecule, in data set [7] (setting [15]), the inhibition at 100 mg/kg is 14%. In data set [7] (oral daily dose 0.1 g/kg), this molecule returned a Total cholesterol of 4.18 g/L and a Total lipids of 10.4 g/L.

On to `CC(C)(Oc1ccc(Sc2ccc(Cl)cc2)cc1)C(=O)OCCSCCCCCCCCCCSCCOC(=O)C(C)(C)Oc1ccc(Sc2ccc(Cl)cc2)cc1` [CRL 40,253, 3,14-Dithia-1,16-hexadecyl di-[4-(4-chlorophenylthio)-phenoxyisobutyrate]], for which the change in vivo at 10 mg/kg in data set [2] (read-out: Cholesterol (change)) and in data set [2] (setting [8]) was -40% throughout. For the same molecule, the “solubility in water (in words)” value in data set [3] is “insoluble in water”.

Regarding `OCCSCCCCCCCCCCSCCO` [LL 1558, 1,10-bis-(2-hydroxyethyl-thio)-decane, reference compound], the inhibition at 100 mg/kg stood at 63% in data set [7] (setting [14]) and 54% in data set [7] (setting [15]). Moreover, in data set [7] (oral daily dose 0.1 g/kg), the Total cholesterol amounted to 2.22 g/L. This molecule gave a Total lipids in data set [7] (oral daily dose 0.1 g/kg) of 7 g/L.

Regarding `CC(C)(COS(C)(=O)=O)Oc1ccc(Oc2ccc(Cl)cc2)cc1` [CRL 40,312, 4-(4-Chlorophenoxy)-phenoxy-isobutyl mesylate], the Anti-aggregation action entry in data set [1] (oral 100 mg/kg for 4 days) is on record as “+”. In addition, in data set [3], the “solubility in water (in words)” value is listed as “insoluble in water”.

Take `O=C(O)COc1ccc(Oc2ccc(Cl)cc2)cc1` [CRL 40,333, 4-(4-Chlorophenoxy)-phenoxyacetic acid]: the Anti-aggregation action result in data set [1] (oral 100 mg/kg for 4 days) was “++”. Also, the change in vivo at 100 mg/kg in data set [2] (read-out: Cholesterol (change)) is -20%; in data set [2] (setting [8]), -24%. In data set [3], the “solubility in water (in words)” value is “insoluble in water”.

On to `CC(C)(Oc1ccc([S+]([O-])c2ccc(Cl)cc2)cc1)C(=O)O` (stereo not drawn) [CRL 40,202, 4-(4-Chlorophenylsulphinyl)-phenoxyisobutyric acid], for which the inhibition at 10 mg/kg is 26% in data set [7] (setting [10]) and 27% in data set [7] (setting [11]). Also, the inhibition at 25 mg/kg in data set [7] (setting [12]) came out at 59%; in data set [7] (setting [13]), 53%. Besides, the Total cholesterol in data set [7] (oral daily dose 0.010 g/kg) came out at 3.64 g/L; in data set [7] (oral daily dose 0.025 g/kg), 2.38 g/L. Also, the figures for the Total lipids in data set [7] (oral daily dose 0.010 g/kg) and in data set [7] (oral daily dose 0.025 g/kg) were 9.28 g/L and 7.05 g/L, respectively.

In the case of `Clc1ccc(Oc2ccc(OCC3=NCCN3)cc2)cc1` [CRL 40,322, 2-[4-(4-Chlorophenoxy)-phenoxy]-methyl-2-imidazoline hydrochloride], the Anti-aggregation action entry in data set [1] (oral 100 mg/kg for 4 days) is “+”. In data set [3] (hot water, hydrochloride), the “solubility in hot water (in words)” value was “soluble in hot water”.

As to `CC(CNCCO)Sc1ccc(Oc2ccc(Cl)cc2)cc1` (racemic) [CRL 40,283, (±)-N-Hydroxyethyl-2-[4-(4-chlorophenoxy)-phenylthio]-1-propylamine], in data set [1] (oral 200 mg/kg for 4 days), the Anti-aggregation action entry is “+”. Besides, in data set [3] (aqueous hydrochloric acid, pH 3 to pH 7), the “solubility in aqueous hydrochloric acid solution (in words)” value was “soluble in an aqueous hydrochloric acid solution at between pH 3 and pH 7”.

For `CC(C)(O)COc1ccc(Oc2ccc(Cl)cc2)cc1` [CRL 40,332, 1-[4-(4-Chlorophenoxy)-phenoxy]-2-methyl-2-propanol], in data set [1] (oral 100 mg/kg for 4 days), the Anti-aggregation action result is reported as “+”. Further, the “solubility in water (in words)” value in data set [3] was “insoluble in water”.
